“And” between values parts separate entries of the source, which are not always exact repeats. Identical values can stand only once.
Experiment: solvent given as SMILES

## c1ccc(-c2nc(-c3ccccc3)c(-c3ccccc3)o2)cc1
In Cc1ccccc1
  fluorescence lifetime: 1.27 ns

## Nc1ccc2c(c1)-c1ccccc1C2=O
In CC#N
  fluorescence lifetime: 5.9 ns
In c1ccccc1
  fluorescence lifetime: 11 ns

## Cc1ccc(N(c2ccc(C)cc2)c2ccc(-c3ccc4c(c3)C(=O)c3ccccc3C4=O)cc2)cc1
In CCCCCC
  fluorescence lifetime: 6.89 ns
In CCOCC
  fluorescence lifetime: 1.27 ns
In Cc1ccccc1
  fluorescence lifetime: 5.75 ns
In ClC(Cl)(Cl)Cl
  fluorescence lifetime: 9.25 ns

## CC1(C)OB(c2cc3ccc4cc(B5OC(C)(C)C(C)(C)O5)cc5ccc(c2)c3c45)OC1(C)C
In Cc1ccccc1
  fluorescence lifetime: 36 ns

## c1ccc(-n2c(-c3ccc(N(c4ccc(-c5ccc(N(c6ccc(-c7nc8c9ccccc9c9ccccc9c8n7-c7ccccc7)cc6)c6ccc(-c7nc8c9ccccc9c9ccccc9c8n7-c7ccccc7)cc6)cc5)cc4)c4ccc(-c5nc6c7ccccc7c7ccccc7c6n5-c5ccccc5)cc4)cc3)nc3c4ccccc4c4ccccc4c32)cc1
In ClCCl
  fluorescence lifetime: 1.68 ns

## CC1=CC(C)=[N+]2C1=Cc1c3ccccc3c(C#Cc3ccc(F)cc3)n1[B-]2(F)F
In CCCCCC
  fluorescence lifetime: 5.44 ns
In CCCCCCCCO
  fluorescence lifetime: 5.07 ns
In CCOC(C)=O
  fluorescence lifetime: 5.32 ns
In CN(C)C=O
  fluorescence lifetime: 4.92 ns

## CCc1ccc(/C=C/c2ccc(-c3nnc(-c4ccc(-c5cc6ccccc6s5)cc4)o3)cc2)cc1
In Cc1ccccc1
  fluorescence lifetime: 0.56 ns
In ClC(Cl)Cl
  fluorescence lifetime: 0.61 ns

## Cc1c2ccc3c(C)[n+](C)ccc3c2cc[n+]1C
In CC#N
  fluorescence lifetime: 5.7 ns

## CSC1=C2C=C(c3cc4n(c3)[B-](F)(F)[N+]3=CC=CC3=C4c3c(C)cc(C)cc3C)C(C)=[N+]2[B-](F)(F)n2c(C)ccc21
In C1CCCCC1
  fluorescence lifetime: 2.67 ns
In CC#N
  fluorescence lifetime: 0.17 ns
In CC(C)=O
  fluorescence lifetime: 0.39 ns
In CCOC(C)=O
  fluorescence lifetime: 0.97 ns
In Cc1ccccc1
  fluorescence lifetime: 1.81 ns

## COc1ccc2ccc([O-])cc2c1
In O
  fluorescence lifetime: 4 ns

## FC(F)(F)C(F)(F)C(F)(F)C1=NC2=C(c3ccccc3)C=C3c4cc(-c5ccccc5)c5nc(C(F)(F)C(F)(F)C(F)(F)F)nc6c(-c7ccccc7)cc(c4c56)=C4C=C(c5ccccc5)C(=N1)C2C34 (centres undefined)
In C1CCOC1
  fluorescence lifetime: 3.2 ns

## Cc1cc(C)n2c1C=C1c3ccccc3C(c3ccc[nH]3)=[N+]1[B-]2(F)F
In C1CCOC1
  fluorescence lifetime: 7.36 ns
In CC#N
  fluorescence lifetime: 7.41 ns
In CCCCCC
  fluorescence lifetime: 7.93 ns
In CO
  fluorescence lifetime: 7.47 ns
In Cc1ccccc1
  fluorescence lifetime: 6.82 ns
In ClCCl
  fluorescence lifetime: 7.28 ns

## N#CC(C#N)=Cc1ccc(-c2ccc(N(c3ccccc3)c3ccccc3)cc2)s1
In ClC(Cl)Cl
  fluorescence lifetime: 2.5 ns

## Cc1ccc2c(c1)C1(c3ccccc3-c3ccccc31)c1cc(C)ccc1N2c1ccc(-c2nc(-c3ccccc3)cc(-c3ccccc3)n2)cc1
In O=P(c1ccccc1)(c1ccccc1)c1ccc2oc3ccc(P(=O)(c4ccccc4)c4ccccc4)cc3c2c1
  fluorescence lifetime: 12 ns

## C[Si](C)(C)O[Si]1(O[Si](C)(C)C)n2c3c4ccccc4c2/N=C2N=C(/N=c4/c5ccccc5/c(n41)=N/C1=NC(=N\3)/c3ccccc31)c1ccccc1\2
In CN(C)C=O
  fluorescence lifetime: 5.57 ns

## CC(C)(C)NC(=O)c1ccc(-c2cc3ccccc3s2)c2ccc3c4ccccc4c4ccccc4c3c12
In ClCCl
  fluorescence lifetime: 0.69 ns

## Nc1cc([NH3+])cc(-c2nc3ccccc3s2)c1
In O
  fluorescence lifetime: 3.87 ns

## O=C(c1ccc(C(=O)c2ccc(N3c4ccccc4Oc4ccccc43)cc2)cc1)c1ccc(N2c3ccccc3Oc3ccccc32)cc1
In c1cc(-c2cccc(-n3c4ccccc4c4ccccc43)c2)cc(-n2c3ccccc3c3ccccc32)c1
  fluorescence lifetime: 26 ns

## CCN(CC)c1ccc2c(-c3ccccc3C(=O)[O-])c3ccc(=[N+](CC)CC)cc-3oc2c1
In CC#N
  fluorescence lifetime: 1.74 ns
In CC(C)O
  fluorescence lifetime: 3.26 ns
In CCCCCCCCO
  fluorescence lifetime: 3.42 ns
In CCCCCCO
  fluorescence lifetime: 3.41 ns
In CCCCO
  fluorescence lifetime: 3.37 ns
In CCCO
  fluorescence lifetime: 3.27 ns
In CCO
  fluorescence lifetime: 2.96 ns
In CN(C)C=O
  fluorescence lifetime: 2.33 ns
In CO
  fluorescence lifetime: 2.5 ns and 2.46 ns
In O
  fluorescence lifetime: 1.74 ns and 1.75 ns
In [2H]O[2H]
  fluorescence lifetime: 1.84 ns

## CCCCCCCCCCCCn1cccc1/C=C/c1ccc(/C=C/c2cccn2CCCCCCCCCCCC)cc1
In Cc1ccccc1
  fluorescence lifetime: 1.06 ns

## Cc1ccc2cc(C)ccc2c1
In C1CCCCC1
  fluorescence lifetime: 64 ns

## O=C(O)c1c2ccccc2c(C(=O)O)c2ccccc12
In C1CCOC1
  fluorescence lifetime: 8.8 ns
In CN(C)C=O
  fluorescence lifetime: 5.7 ns

## C=Cc1cc2ccc(OC(=O)c3ccccc3)cc2oc1=O
In CC#N
  fluorescence lifetime: 3.28 ns

## O=c1oc2ccccc2cc1-c1nc2ccccc2o1
In CO
  fluorescence lifetime: 3.47 ns
In ClC(Cl)(Cl)Cl
  fluorescence lifetime: 3.17 ns
In OCCO
  fluorescence lifetime: 3.78 ns

Reference: the Deep4Chem optical property database
